In article PMC7922224, “Searching for Small Molecules as Antibacterials: Non-Cytotoxic Diarylureas Analogues of Triclocarban” (Antibiotics, 2021):
≈ marks a conversion by molar mass, not a printed value.

Tests used:
[1] = test system: E. coli 25922; experiment: MIC by broth microdilution (CLSI); format: cell-based; settings: Escherichia coli, Gram-negative, 37 °C, 24 h, Mueller Hinton Broth
[2] = test system: E. faecalis ATCC 29212; experiment: MIC by broth microdilution (CLSI); format: cell-based, Enterococcus faecalis; settings: Enterococcus faecalis, ATCC29212; Gram-positive; 37 °C, 24 h, Mueller Hinton Broth; read-out: MIC E.f. 29212
Protocol: (§1) The in vitro Minimum Inhibitory Concentrations (MICs, μg/mL) were determined by the broth microdilution method according to the Clinical Laboratory Standards Institute (CLSI) guidelines. MIC values were recorded as the lowest concentration of compounds at which there was no optically detectable microorganism growth and evaluated by comparing the growth in each well visually with that of the growth in the control well for bacteria. All compounds were dissolved in dimethyl sulfoxide (DMSO) and were tested in a final concentration range of from 512 to 2 µg/mL. MICs for the reference antibiotic norfloxacin against quality control strains were used to confirm the validity of the screen. According to the CLSI guidelines, diphenylureas were tested in vitro against a panel of Gram-positive and Gram-negative bacteria belonging to the ATCC collection using the standard microdilution test for the determination of MICs. MICs of the synthesised compounds along with the parent compound TCC and with the standard antibiotic norfloxacin are listed in Table 1. The compounds were also analyzed in terms of molecular mass, logP (Table 1), number of hydrogen-bond donors and number of hydrogen-bond acceptors, and most of them obeyed Lipinski’s rule. […] Based on our results, it seems that the 3,4-dichloro-disubstitution pattern, which is present in TCC, is not crucial for activity. […] Moreover, the activity against Enterococcus faecalis was interesting. E. faecalis is a ubiquitous member of the healthy human gut microbiota and also a common opportunistic pathogen and leading cause of nosocomial infections. It has a high incidence for most infections, and the case numbers have been increasing in recent decades, likely due to its greater ability to persist in healthcare facilities and its higher abundance in the human gut microbiome. Kim et al. (2016) compared the bactericidal effects of plain and antibacterial soap containing 0.3% TCC. The authors found no significative difference between the effects of plain and medicated soap at either temperature, with the only exception of E. faecalis ATCC 19433 at 40 °C.
(§2) MICs (μg/mL) were determined by the broth microdilution method, using 96-well plates, according to CLSI [26]. Stock solutions of the investigated compounds were obtained by setting the concentration at the maximum possible value. Then, the stock solutions were diluted 1:10 with Mueller Hinton Broth (Oxoid, Italy). Afterwards, twofold serial dilutions in the suitable test medium were carried out to obtain a set of concentrations from 512 to 2 µg/mL in the wells. To obtain the stock solution, DMSO (100%) was employed as diluent. The following bacteria strains, available as freeze-dried discs, belonging to the ATCC collection, were used: Gram-positive: S. aureus ATCC 29213, 6538, and 6538P, E. faecalis ATCC 29212; Gram-negative: K. pneuomoniae ATCC 13883, P. aeruginosa ATCC 27853. To conserve the purity of cultures and to enable their reproducibility, cryovials of all microbial strains in the medium were set up and stored at −80 °C. Pre-cultures of each bacterial strain were prepared in Mueller Hinton Broth (MHB) and incubated at 37 °C for 3–5 h. The turbidity of bacterial cell suspension was calibrated to 0.5 McFarland Standard by the spectrophotometric method (OD 625 nm 0.08–0.10), as indicated in the CLSI protocol M7-A9 and, further, the standardized suspension was diluted (1:100) with MHB to reach 1–2 × 10^6 CFU/mL. All wells were seeded with 100 µl of the mentioned final inoculum, and some wells contained only inoculated broth as control growth. […] The MICs were determined by using the assay repeated twice in triplicate. Throughout the study, norfloxacin was used as reference antibiotic. Appropriate controls involved norfloxacin for bacteria as international reference standard. […]

[3] = test system: K. pneumoniae ATCC 13883; experiment: MIC by broth microdilution (CLSI); format: cell-based; settings: Klebsiella pneumoniae, ATCC13883; Gram-negative; 37 °C, 24 h, Mueller Hinton Broth; read-out: MIC K.p. 13883
Protocol: as §1, §2

[4] = test system: P. aeruginosa ATCC 27853; experiment: MIC by broth microdilution (CLSI); format: cell-based; settings: Pseudomonas aeruginosa, ATCC27853; Gram-negative; 37 °C, 24 h, Mueller Hinton Broth
Protocol: as §1, §2

[5] = test system: cancer cell lines (MCF-7, MDA-MB-231, HeLa, Ishikawa, A2058); experiment: MTT cell viability assay, panel of cancer cell lines; format: cell-based; settings: Homo sapiens, all cancer cell lines used, 72 h, read-out: IC50 against the cancer cell lines
Description: In order to investigate the anticancer effects of compounds 1ab, 1bc and 1ce (TCC), we used different human cancer cell models, namely, two breast cancer cells (MCF-7 and MDA-MB-231), two uterine cancer cells (HeLa and Ishikawa) and the melanoma epithelial cells A2058.
(§3) Human MCF-7 and MDA-MB-231 breast cancer cells, HeLa and […] uterine carcinoma cells, A2058 melanoma epithelial cells, MCF-10A mammary epithelial cells and Hek-293 embryonic kidney epithelial cells were obtained from American Type Culture Collection (ATCC, Manassas, VA, USA). Estrogen receptor positive [(ER(+)] MCF-7 and triple negative MDA-MB-231 breast cancer cells were maintained in Dulbecco’s modified Eagle’s medium/nutrient mixture F-12 Ham (DMEM-F12) medium containing 2 mmol/L L-glutamine, 1 mg/mL penicillin-streptomycin and supplemented with 5% fetal bovine serum (FBS). HeLa epithelial cervix carcinoma cells, estrogen receptor negative [ER(-)], and Ishikawa endometrial adenocarcinoma cell, estrogen receptor positive [ER(+)], were kept in minimum essential medium (MEM), supplemented with 10% FBS, 100 U/mL penicillin/streptomycin and 1% non-essential amino acid. A2058 highly metastatic melanoma epithelial cells were kept in DMEM low glucose (1 g/L), supplemented with 20% FBS, 1% l-glutamine and 100 U/mL penicillin/streptomycin. MCF-10A mammary epithelial cells, were cultured in DMEM/F12 medium, supplemented with 5% horse serum (HS), 100 U/mL penicillin/streptomycin, […] hydrocortisone, 20 ng/mL human epidermal growth factor (hEGF), […] and […] cholera enterotoxin (Sigma-Aldrich, Milan, Italy). Hek-293 embryonic kidney epithelial cells were cultured in DMEM high glucose (4.5 g/L), supplemented with 10% FBS, 1% l-glutamine and 100 U/mL penicillin/streptomycin. Cells were conserved at 37 °C in a humid atmosphere of 95% air and 5% CO2, and screened for contamination at regular intervals.
Cell viability was determined using the 3-(4,5-dimethylthiazol-2-y1)-2,5-diphenyltetrazolium bromide (MTT, Sigma-Aldrich, Milan, Italy) assay. […]

[6] = test system: S. aureus ATCC 29213; experiment: MIC by broth microdilution (CLSI); format: cell-based, Staphylococcus aureus; settings: Staphylococcus aureus, ATCC29213; Gram-positive; 37 °C, 24 h, Mueller Hinton Broth
Protocol: as §1, §2

[7] = test system: S. aureus ATCC 6538; experiment: MIC by broth microdilution (CLSI); format: cell-based, Staphylococcus aureus; settings: Staphylococcus aureus, ATCC6538; Gram-positive; 37 °C, 24 h, Mueller Hinton Broth
Protocol: as §1, §2

[8] = test system: S. aureus ATCC 6538P; experiment: MIC by broth microdilution (CLSI); format: cell-based, Staphylococcus aureus; settings: Staphylococcus aureus, ATCC6538P; Gram-positive; 37 °C, 24 h, Mueller Hinton Broth
Protocol: as §1, §2

[9] = test system: Staphylococcus aureus; experiment: MIC by broth microdilution, S. aureus (strain not given); format: cell-based; settings: strain not specified (best value among the ATCC strains), read-out: MIC against S. aureus
Protocol: as §1, §2

[10] = test system: MDA-MB-231 breast cancer cells; experiment: MTT cell viability assay; format: cell-based; settings: Homo sapiens, 72 h, mean ± SD of three independent experiments
Description: as §3
(§4) Cell viability was determined using the 3-(4,5-dimethylthiazol-2-y1)-2,5-diphenyltetrazolium bromide (MTT, Sigma-Aldrich, Milan, Italy) assay. Cells were seeded on 48-well plates and grown in complete medium. Before treatment, cells were starved in serum free medium for 24 h to allow cell cycle synchronization. […] Data are representative of three independent experiments; standard deviations (SD) are shown.

[11] = test system: Ishikawa uterine cancer cells; experiment: MTT cell viability assay; format: cell-based; settings: Homo sapiens, 72 h, mean ± SD of three independent experiments
Description: as §3, §4

[12] = test system: A2058 melanoma epithelial cells; experiment: MTT cell viability assay; format: cell-based; settings: Homo sapiens, 72 h, mean ± SD of three independent experiments
Description: as §3, §4

[13] = test system: MCF-7 breast cancer cells; experiment: MTT cell viability assay; format: cell-based; settings: Homo sapiens, MCF7, 72 h, mean ± SD of three independent experiments
Description: as §3, §4

[14] = test system: Hek-293 embryonic kidney epithelial cells; experiment: MTT cell viability assay; format: cell-based; settings: Homo sapiens, HEK293, normal cells, 72 h, mean ± SD of three independent experiments
Description: as §3, §4

[15] = test system: HeLa uterine cancer cells; experiment: MTT cell viability assay; format: cell-based; settings: Homo sapiens, 72 h, mean ± SD of three independent experiments
Description: as §3, §4

[16] = test system: MCF-10A mammary epithelial cells; experiment: MTT cell viability assay; format: cell-based; settings: Homo sapiens, normal cells, 72 h, mean ± SD of three independent experiments
Description: as §3, §4

[17] = test system: K. pneumoniae ATCC 13883; set-up: method as in earlier work; settings: reference antibiotic, values according to CLSI (2012) ref 26; cited from earlier work
[18] = test system: P. aeruginosa ATCC 27853; set-up: method as in earlier work; settings: reference antibiotic, values according to CLSI (2012) ref 26; cited from earlier work
[19] = test system: S. aureus ATCC 29213; set-up: method as in earlier work; settings: reference antibiotic, values according to CLSI (2012) ref 26; cited from earlier work
[20] = test system: E. coli 25922; set-up: method as in earlier work; settings: reference antibiotic, values according to CLSI (2012) ref 26; cited from earlier work
[21] = test system: E. faecalis ATCC 29212; set-up: method as in earlier work; settings: reference antibiotic, values according to CLSI (2012) ref 26; cited from earlier work

Compound	MIC [1] [µg/mL]	MIC [2] [µg/mL]	MIC [3] [µg/mL]	MIC [4] [µg/mL]	IC50 [5] [µg/mL]	MIC [6] [µg/mL]	MIC [7] [µg/mL]	MIC [8] [µg/mL]	MIC [9] [µg/mL]	melting point [°C]	IC50 [10] [µg/mL]	IC50 [11] [µg/mL]	IC50 [12] [µg/mL]	IC50 [13] [µg/mL]	IC50 [14] [µg/mL]	IC50 [15] [µg/mL]	IC50 [16] [µg/mL]	also measured
Cc1ccc(NC(=O)Nc2c(C)cccc2C)cc1 [1ab, 1-(2,6-Dimethylphenyl)-3-p-tolylurea]	> 256	32 (≈ 126 µM)	> 256	> 256	> 200	> 256	16 (≈ 62.9 µM)	16 (≈ 62.9 µM)	16 (≈ 62.9 µM)	242 to 243	> 200	> 200	> 200	> 200	> 200	> 200	> 200	
Cc1cccc(C)c1NC(=O)Nc1ccc(Cl)cc1 [1bc, 1-(2,6-Dimethylphenyl)-3-(4-chlorophenyl)urea]	> 256	32 (≈ 116 µM)	> 256	> 256	> 200	256 (≈ 932 µM)	16 (≈ 58.2 µM)	16 (≈ 58.2 µM)	16 (≈ 58.2 µM)	244 to 245	> 200	> 200	> 200	> 200	> 200	> 200	> 200	
O=C(Nc1ccc(Cl)cc1)Nc1ccc(Cl)c(Cl)c1 [1ce (TCC), 1-(3,4-Dichlorophenyl)-3-(4-chlorophenyl)urea, reference compound]	256 (≈ 811 µM)	64 (≈ 203 µM)	256 (≈ 811 µM)	256 (≈ 811 µM)	0.64 to 1.68 (≈ 2.03 to 5.32 µM)	16 (≈ 50.7 µM)	128 (≈ 406 µM)	16 (≈ 50.7 µM)	16 (≈ 50.7 µM)		0.89 ± 0.8 (≈ 2.82 µM)	1.68 ± 0.9 (≈ 5.32 µM)	0.89 ± 0.7 (≈ 2.82 µM)	0.64 ± 0.5 (≈ 2.03 µM)	1.6 ± 0.8 (≈ 5.07 µM)	1.01 ± 1.1 (≈ 3.2 µM)	1.43 ± 0.7 (≈ 4.53 µM)	
CCn1cc(C(=O)O)c(=O)c2cc(F)c(N3CCNCC3)cc21 [NRF, norfloxacin]																		MIC K.p. 13883 [17]: 0.5 to 1 µg/mL; MIC P. a. 27853 [18]: 1 to 4 µg/mL; MIC S.a. 29213 [19]: 0.5 to 2 µg/mL; MIC E.c. 25922 [20]: 0.03 to 0.12 µg/mL; MIC E.f. 29212 [21]: 2 to 8 µg/mL
